Laboratory results taken from PMC8408311 (Diabetologia, 2021).
Like-named read-outs stand apart in the source and are kept apart here.

Columns and labels:
[1] = 3-year prospective observational study of quadruple oral therapy in T2DM; type: in vivo, human; conditions: empagliflozin 25 mg/day, dapagliflozin 10 mg/day
[2] = EMPA-REG OUTCOME, uric acid and gout analysis; type: in vivo, human
C57BL/6 mice = assay: High-fat diet-fed mice, 8 weeks of treatment; type: in vivo, mouse; conditions: HFD mice, 10mg/kg for 8 weeks
[3] = system: patients with type 2 diabetes at CV risk; assay: PIONEER 6, treatment discontinuation; parameters: species or system human; conditions: in vivo
[4] = CADODIAME study, subclinical diabetic macular oedema; type: in vivo, human; conditions: 1000 mg twice per day, 1 year; SD 14
C57BL/6J mice = assay: Pparg splicing in epididymal adipose tissue of LPS-injected mice; type: in vivo, mouse; conditions: inflamed adipose tissue, n=6
[5] = VERTIS CV, analysis in older patients; type: in vivo, human
[6] = Low dose gliclazide and sitagliptin crossover study, mixed meal test and CGM; type: in vivo, human; conditions: 2-hour MMT after 14 days
[7] = Danish registry cohort, hypoglycaemic episodes leading to hospitalisation; type: in vivo, human
[8] = system: people with T2D inadequately controlled with diet and exercise; assay: SURPASS-1 trial; type: in vivo, human; conditions: across TZP doses
[9] = SURPASS-2, add-on to metformin in type 2 diabetes; type: in vivo, human; conditions: TZP range over 5-15 mg; SEMA 1 mg
[10] = SURPASS-5, add-on to insulin glargine in type 2 diabetes; conditions: range over 5, 10, 15 mg
[11] = Liraglutide crossover trial, Holter monitoring and echocardiography; type: in vivo, human; conditions: 12 weeks
[12] = SUSTAIN 10 post hoc analysis by baseline SGLT-2i; type: in vivo, human
[13] = Swedish registry cohorts, causal random forest, change after 6 months versus SU; type: in vivo, human; conditions: after 6 months treatment
[14] = single dose 50 mg
[15] = system: human hTERT-immortalized adipose tissue-derived MSCs; assay: PPARG splicing in adipose tissue-derived MSCs treated with recombinant cytokines; type: cell-based
[16] = type: in vivo, human
[17] = Insulin icodec titration trial, CGM hypoglycaemia duration, insulin-naive T2D; type: in vivo, human
[18] = system: insulin-naive patients with type 2 diabetes; assay: Icodec phase 2 titration trial, CGM post hoc; type: in vivo, human; conditions: titration B, weeks 15&16
[19] = EXPECT trial, pregnant women with type 1 diabetes; type: in vivo, human; conditions: degludec once daily or detemir 1-2 times daily, both with insulin aspart
male Wistar rats = assay: 30-min filament middle cerebral artery occlusion; type: in vivo, rat; conditions: 48 h after MCAO; healthy 18 points, maximal deficit 3 points
HFD C57BL/6J mice = assay: obesity-induced cardiac dysfunction, high-fat diet mice; type: in vivo; conditions: 10 mg/kg/day intragastric for 8 weeks
[20] = system: mouse pancreatic beta cells; assay: PKA activation; type: cell-based; conditions: only effective from
Arrb2-/- beta cells = assay: Incretin responses in Arrb2-/- beta cells; type: cell-based, mouse
[21] = Tirzepatide single-dose PK in hepatic impairment; type: in vivo, human

## OC[C@H]1O[C@@H](c2ccc(Cl)c(Cc3ccc(O[C@H]4CCOC4)cc3)c2)[C@H](O)[C@@H](O)[C@@H]1O [empagliflozin, Empagliflozin]
[1]
  Change in body weight at 3 years: -4.5 ± 2.5 kg
  Change in fasting plasma glucose at 3 years: -59.3 ± 53.3 mg/dL
[2]; pooled empagliflozin
  Hazard ratio (95% CI) for gout flare or initiation of a drug for gout vs placebo: 0.67 (0.53, 0.85)
[2]; pooled empagliflozin, patients not on UA lowering medication at baseline
  Patients with a gout flare or initiation of a drug for gout: 3.6%
[2]; week 52, baseline UA levels ≥6 mg/dL
  Serum uric acid, adjusted mean (95% CI) treatment difference vs placebo: −0.46 (−0.55, −0.38) mg/dL
[2]; week 52, pooled 10 and 25 mg/day
  Serum uric acid, adjusted mean (95% CI) treatment difference vs placebo: −0.37 (−0.42, −0.31) mg/dL
C57BL/6 mice
  Body weight: 40 ± 0.9 g
  Fat mass: 8.5 ± 1.5 g

## CC[C@H](C)[C@H](NC(=O)[C@H](Cc1ccccc1)NC(=O)[C@H](CCC(=O)O)NC(=O)[C@H](CCCCNC(=O)COCCOCCNC(=O)COCCOCCNC(=O)CC[C@H](NC(=O)CCCCCCCCCCCCCCCCC(=O)O)C(=O)O)NC(=O)[C@H](C)NC(=O)[C@H](C)NC(=O)[C@H](CCC(N)=O)NC(=O)CNC(=O)[C@H](CCC(=O)O)NC(=O)[C@H](CC(C)C)NC(=O)[C@H](Cc1ccc(O)cc1)NC(=O)[C@H](CO)NC(=O)[C@H](CO)NC(=O)[C@@H](NC(=O)[C@H](CC(=O)O)NC(=O)[C@H](CO)NC(=O)[C@@H](NC(=O)[C@H](Cc1ccccc1)NC(=O)[C@@H](NC(=O)CNC(=O)[C@H](CCC(=O)O)NC(=O)C(C)(C)NC(=O)[C@@H](N)Cc1cnc[nH]1)[C@@H](C)O)[C@@H](C)O)C(C)C)C(=O)N[C@@H](C)C(=O)N[C@@H](Cc1c[nH]c2ccccc12)C(=O)N[C@@H](CC(C)C)C(=O)N[C@H](C(=O)N[C@@H](CCCNC(=N)N)C(=O)NCC(=O)N[C@@H](CCCNC(=N)N)C(=O)NCC(=O)O)C(C)C [oral semaglutide, semaglutide]
[3]
  patients who stopped at least once due to an AE: 27%

## O=S(=O)(O)c1cc(O)ccc1O [CaD, Calcium dobesilate]
[4]
  Mean decrease of retinal thickness: 2.5 μm

## lipopolysaccharides [LPS]
C57BL/6J mice
  Increase of PpargΔ5/cPparg ratio: 3.5 fold

## CCOc1ccc(Cc2cc([C@]34OC[C@](CO)(O3)[C@@H](O)[C@H](O)[C@H]4O)ccc2Cl)cc1 [ertugliflozin]
[5]; patients ≥65 yrs
  Incidence of hypovolemia AEs: 5.3%
[5]; patients ≥75 yrs
  Incidence of hypovolemia AEs: 6.9%

## N[C@@H](CC(=O)N1CCn2c(nnc2C(F)(F)F)C1)Cc1cc(F)c(F)cc1F [DPP4, sitagliptin]
[6]
  Beta cell glucose sensitivity: 75.9 (55.7 - 96.0) pmol min^-1 m^-2mM^-1

## human insulin
[7]; combination human insulin
  HR for hypoglycaemic episodes leading to hospitalisation: 1.84
[7]; intermediate-acting human insulin
  HR for hypoglycaemic episodes leading to hospitalisation: 1.38

## CC[C@H](C)[C@H](NC(=O)[C@H](CC(C)C)NC(=O)[C@H](Cc1c[nH]c2ccccc12)NC(=O)[C@H](CCC(N)=O)NC(=O)[C@@H](NC(=O)[C@H](Cc1ccccc1)NC(=O)[C@H](C)NC(=O)[C@H](CCCCNC(=O)COCCOCCNC(=O)COCCOCCNC(=O)CC[C@H](NC(=O)CCCCCCCCCCCCCCCCCCC(=O)O)C(=O)O)NC(=O)[C@H](CCC(N)=O)NC(=O)[C@H](C)NC(=O)[C@@H](NC(=O)[C@H](CCCCN)NC(=O)[C@H](CC(=O)O)NC(=O)[C@H](CC(C)C)NC(=O)C(C)(C)NC(=O)[C@@H](NC(=O)[C@H](CO)NC(=O)[C@H](Cc1ccc(O)cc1)NC(=O)[C@H](CC(=O)O)NC(=O)[C@H](CO)NC(=O)[C@@H](NC(=O)[C@H](Cc1ccccc1)NC(=O)[C@@H](NC(=O)CNC(=O)[C@H](CCC(=O)O)NC(=O)C(C)(C)NC(=O)[C@@H](N)Cc1ccc(O)cc1)[C@@H](C)O)[C@@H](C)O)[C@@H](C)CC)[C@@H](C)CC)C(C)C)C(=O)N[C@@H](C)C(=O)NCC(=O)NCC(=O)N1CCC[C@H]1C(=O)N[C@@H](CO)C(=O)N[C@@H](CO)C(=O)NCC(=O)N[C@@H](C)C(=O)N1CCC[C@H]1C(=O)N1CCC[C@H]1C(=O)N1CCC[C@H]1C(=O)N[C@@H](CO)C(N)=O [TZP, Tirzepatide]
[8]
  Diarrhoea: 12-14%
  Nausea: 12-18%
[9]
  Diarrhoea: 13-16%
  Nausea: 17-22%
  Vomiting: 6-10%
[10]
  Diarrhoea, patients reporting: 12-21%
  Incidence of hypoglycaemia (blood glucose <3.0 mmol/L) or severe hypoglycaemia: 14-19%
  Nausea, patients reporting: 13-18%
  Vomiting, patients reporting: 7-13%

## CCCCCCCCCCCCCCCC(=O)N[C@@H](CCC(=O)NCCCC[C@H](NC(=O)[C@H](C)NC(=O)[C@H](C)NC(=O)[C@H](CCC(N)=O)NC(=O)CNC(=O)[C@H](CCC(=O)O)NC(=O)[C@H](CC(C)C)NC(=O)[C@H](Cc1ccc(O)cc1)NC(=O)[C@H](CO)NC(=O)[C@H](CO)NC(=O)[C@@H](NC(=O)[C@H](CC(=O)O)NC(=O)[C@H](CO)NC(=O)[C@@H](NC(=O)[C@H](Cc1ccccc1)NC(=O)[C@@H](NC(=O)CNC(=O)[C@H](CCC(=O)O)NC(=O)[C@H](C)NC(=O)[C@@H](N)Cc1cnc[nH]1)[C@@H](C)O)[C@@H](C)O)C(C)C)C(=O)N[C@@H](CCC(=O)O)C(=O)N[C@@H](Cc1ccccc1)C(=O)N[C@H](C(=O)N[C@@H](C)C(=O)N[C@@H](Cc1c[nH]c2ccccc12)C(=O)N[C@@H](CC(C)C)C(=O)N[C@H](C(=O)N[C@@H](CCCNC(=N)N)C(=O)NCC(=O)N[C@@H](CCCNC(=N)N)C(=O)NCC(=O)O)C(C)C)[C@@H](C)CC)C(=O)O [liraglutide]
[11]
  Impairment of diastolic filling (e'): 10%
[12]; with SGLT-2i
  Premature treatment discontinuations due to AEs: 7.2%
[12]; without SGLT-2i
  Premature treatment discontinuations due to AEs: 6.4%

## CCOc1ccc(Cc2cc([C@@H]3O[C@H](CO)[C@@H](O)[C@H](O)[C@H]3O)ccc2Cl)cc1 [dapagliflozin]
[13]
  Average treatment effect on change in HbA1c compared to SU: -1.10 [-1.92, -0.27] mmol/mol
[1]
  Change in body weight at 3 years: -1.0 ± 3.3 kg
  Change in fasting plasma glucose at 3 years: -47.4 ± 61.7 mg/dL
[14]
  adverse events: no adverse events
UACR >3500 mg/g, 95%CI 3.0, 24.5
  Absolute risk reduction for the primary outcome: 13.8%
UACR >1000 to ≤3500 mg/g, 95%CI 3.6, 10.1
  Absolute risk reduction for the primary outcome: 6.9%

## TNFα
[15]
  Increase of PpargΔ5/cPparg ratio: 2.5 fold

## Insulin icodec
[16]; with 100% loading dose
  Overall hypoglycaemic episode duration, median (IQR): 40.0 (20.0, 75.0) min
[16]; without loading dose
  Overall hypoglycaemic episode duration, median (IQR): 40.0 (25.0, 80.0) min
[17]; titration A (4.4-7.2 mmol/L; ±21 U/week), CGM <3.9 mmol/L for at least 15 min
  Overall hypoglycaemic episode duration, median (IQR): 35.0 (20.0, 70.0) min
[17]; titration B (4.4-7.2 mmol/L ±28 U/week)
  Overall hypoglycaemic episode duration, median (IQR): 35.0 (20.0, 70.0) min
[17]; titration C (3.9-6.0 mmol/L ±28 U/week)
  Overall hypoglycaemic episode duration, median (IQR): 39.0 (24.0, 70.0) min
[18]
  patients with >70% TIR and TBR<3.9 mmol/L <4%: 80.0%

## insulin detemir
[19]
  Estimated mean HbA1c prior to delivery: 6.34%

## OC[C@H]1O[C@@H](c2ccc(Cl)c(Cc3ccc(O[C@H]4CCOC4)cc3)c2)[C@H](O)[C@@H](O)[C@@H]1O [EMPA, empagliflozin]
Male Wistar rats
  Garcia score (neurological deficit): 12.0 (9.5; 14.0) points
HFD C57BL/6J mice
  body weight and whole-body fat: Lower
  myocardial damage: reduced

## glucose-dependent insulinotropic polypeptide (YAEGTFISDYSIAMDKIHQQDFVNWLLAQKGKKNDWKHNITQ; Gastric inhibitory polypeptide; UniProt P09681 52-93, looked up) [GIP]
[20]
  Lowest effective concentration on PKA activation and insulin secretion: ≥ 1 nM
Arrb2-/- beta cells
  Reduction of insulin secretion in Arrb2-/- beta cells: ~ 50%

## CC[C@H](C)[C@H](NC(=O)[C@H](CC(C)C)NC(=O)[C@H](Cc1c[nH]c2ccccc12)NC(=O)[C@H](CCC(N)=O)NC(=O)[C@@H](NC(=O)[C@H](Cc1ccccc1)NC(=O)[C@H](C)NC(=O)[C@H](CCCCNC(=O)COCCOCCNC(=O)COCCOCCNC(=O)CC[C@H](NC(=O)CCCCCCCCCCCCCCCCCCC(=O)O)C(=O)O)NC(=O)[C@H](CCC(N)=O)NC(=O)[C@H](C)NC(=O)[C@@H](NC(=O)[C@H](CCCCN)NC(=O)[C@H](CC(=O)O)NC(=O)[C@H](CC(C)C)NC(=O)C(C)(C)NC(=O)[C@@H](NC(=O)[C@H](CO)NC(=O)[C@H](Cc1ccc(O)cc1)NC(=O)[C@H](CC(=O)O)NC(=O)[C@H](CO)NC(=O)[C@@H](NC(=O)[C@H](Cc1ccccc1)NC(=O)[C@@H](NC(=O)CNC(=O)[C@H](CCC(=O)O)NC(=O)C(C)(C)NC(=O)[C@@H](N)Cc1ccc(O)cc1)[C@@H](C)O)[C@@H](C)O)[C@@H](C)CC)[C@@H](C)CC)C(C)C)C(=O)N[C@@H](C)C(=O)NCC(=O)NCC(=O)N1CCC[C@H]1C(=O)N[C@@H](CO)C(=O)N[C@@H](CO)C(=O)NCC(=O)N[C@@H](C)C(=O)N1CCC[C@H]1C(=O)N1CCC[C@H]1C(=O)N1CCC[C@H]1C(=O)N[C@@H](CO)C(N)=O [Tirzepatide]
[21]; across all groups
  median tmax: no change
[21]; control and hepatic impairment groups
  geometric least squares mean t1/2: similar
